Measurements taken from US20260091082A1, “CYCLIC PEPTIDE DERIVATIVE COMPOSITION FOR TREATING OR PREVENTING EYE DISEASE” (DKS Co. Ltd., priority 2022, published 2026).
Where “and” joins values, the source holds several entries; their conditions need not be identical. Identical values can stand only once. Entries after “also recorded” stand apart in the source; their conditions may differ.

Test system: anterior chamber aqueous humor pressure load rat model
Assay: Retinal thickness (IPL, INL, ONL) in retinal damage model induced by anterior chamber aqueous humor pressure load
Type: in vivo, Rat; Slc: SD
Conditions: for Inner plexiform layer (IPL) thickness compared with the control group, in words: 300 to 900 μm from the optic disk
Description: • Name: Compound 9 • Source: Synthesized in the above Examples • Used amount: 0.4 mL (50 mg/mL solution) • Storage conditions: Freezing, light shielding
Method for preparing test substance (1 mg/mL): A high concentration solution prepared at 50 mg/mL was diluted 50 times with a medium to prepare a 1 mg/mL administration solution.
• Name: MK-801 • Distributor: SIGMA-ALDRICH • Use amount: 0.0501 g • Storage condition: refrigerated (2° C. to 8° C.)
Method for preparing positive control substance (10 mg/mL): 0.0501 g was weighed out and made up to a total volume of 5 mL with a control substance (physiological saline).
• Species and strains: Rat; Slc: SD • Number of animals on arrival and sex: 50 males • Age in weeks at arrival: 6 weeks old • Body weight range at arrival: 147.2 to 170.0 g • Source: Japan SLC, Inc.
Grouping was performed two days before the first creation of the retinal damage model induced by an anterior chamber aqueous humor pressure load. Using the daily body weight as an index, stratified random allocation was performed using SAS (Ver. 9.3, SAS Institute Japan Ltd.) and EXSUS (Ver. 8.0, CAC Croit Corporation) so that an average value of the body weights of each group was approximately uniform.
• Administration route: Eyedrop administration, intravenous administration • Administration method (eyedrop): Eyedrop administration was performed on a treated eye (right eye) of a rat using a micropipette 4 times a day (at intervals of 1.5 hours or more). • Administration method (intravenous): The amount of administration solution, calculated from the body weight on the day of administration, was administered from the tail vein using a syringe and an injection needle about 30 minutes before ischemic load. • Time of administration: Administration was performed according to the following schedule.
1. 10 mg/kg xylazine hydrochloride was intramuscularly administered on the model creation day (day 0). A rat was placed in an anesthesia box and subjected to general anesthesia with isoflurane (5%, oxygen:nitrous oxide=1:3). When anesthesia was effective, the rat was taken out of the anesthesia box, an inhalation anesthetic mask was worn, and anesthesia was maintained with isoflurane (1% to 5%, oxygen nitrous oxide=1:3).
2. The body temperature was maintained at 37° C. with a warming mat, and a mydrin P ophthalmic solution was instilled in the right eye (treated eye) of the rat to dilate the pupil, then the cravit ophthalmic solution 1.5% (Santen Pharmaceutical Co., Ltd.) was instilled.
3. A bottle of an IV bag containing physiological saline was previously suspended so that a water surface was 155 cm (100 mmHg or more) higher than the eye of the rat. The IV bag was connected to a pediatric infusion set (Terumo Corporation), a 27 G injection needle thereof was inserted into and fixed to the anterior chamber while slightly dripping the liquid from a needle tip. The model was created in the light phase (6:00 to 18:00) in consideration of the diurnal variation of the intraocular pressure.
4. After the needle was inserted into the anterior chamber, pressure (100 mmHg or more) was loaded and maintained in the anterior chamber by associating the reflux system.
5. After an ischemic load for 45 minutes, the injection needle and the like were removed, the inhalation anesthetic mask was removed, and the rat was sufficiently woken up under a warming mat, and then returned to the cage.
6. For 2 days after surgery, 10 mg/kg xylazine hydrochloride was intramuscularly administered as an analgesic for the purpose of alleviating the pain after the treatment.
1. Fourteen days after model creation, general anesthesia was performed with isoflurane (5%, oxygen:nitrous oxide=1:3), euthanasia was then performed by exsanguination, a suture was placed as a marker at the 12 o'clock position of the ocular conjunctiva, and eyeball enucleation was performed.
2. […]

[1] = compound 9, 1 mg/mL eye drop, right eye, individual animals 301-310
[2] = test groups 2 and 3 (test substance groups)

CC[C@@]1(C)Oc2cc(ccc2O)C[C@H](NC)C(=O)N[C@@H](C(C)C)C(=O)N[C@@H]1C(=O)N[C@@H](CC(=O)O)C(=O)O [Compound 9] was tested. Which “Thickness of IPL (μm), Distance from Optic Disk 300 μm, Mean” value (compound 9 (pre), 1 mg/mL eye drop, right eye, 300 μm from optic disk, mean per animal, listed as compond 9) did it give?
The value was 28.230 μm and 31.630 μm and 36.376 μm and 29.236 μm and 31.100 μm and 32.951 μm and 33.216 μm and 29.810 μm and 33.996 μm and 26.517 μm.

And the “Thickness of INL (μm), Distance from Optic Disk 600 μm” value (compound 9 (pre), 1 mg/mL eye drop, right eye, 600 μm from optic disk, individual measurements per animal)?
Its value is 33.065 μm and 33.351 μm and 31.150 μm and 27.855 μm and 34.827 μm and 31.493 μm and 24.207 μm and 30.656 μm and 26.506 μm and 25.323 μm and 34.640 μm and 33.153 μm and 30.688 μm and 31.462 μm and 25.000 μm and 25.819 μm and 36.789 μm and 36.469 μm and 35.907 μm and 35.051 μm and 38.781 μm and 30.223 μm and 27.431 μm and 28.512 μm and 22.710 μm and 34.691 μm and 32.298 μm and 28.240 μm and 38.410 μm and 32.790 μm.

And the “Thickness of IPL (μm), Distance from Optic Disk 600 μm” value (compound 9 (pre), 1 mg/mL eye drop, right eye, 600 μm from optic disk, individual measurements per animal, listed as compond 9)?
Its value is 35.272 μm and 36.967 μm and 39.787 μm and 38.516 μm and 42.129 μm and 44.421 μm and 35.566 μm and 35.907 μm and 34.333 μm and 35.134 μm and 37.963 μm and 38.006 μm and 42.772 μm and 42.744 μm and 37.116 μm and 32.671 μm and 45.118 μm and 45.778 μm and 34.473 μm and 36.322 μm and 37.125 μm and 37.847 μm and 44.472 μm and 36.393 μm and 35.013 μm and 40.678 μm and 44.362 μm and 37.009 μm and 45.280 μm and 36.469 μm.

And the “Thickness of INL (μm), Distance from Optic Disk 600 μm, Mean” value (compound 9 (pre), 1 mg/mL eye drop, right eye, 600 μm from optic disk, mean per animal)?
Its value is 35.066 μm and 29.743 μm and 31.250 μm and 27.792 μm and 24.846 μm and 34.161 μm and 31.483 μm and 26.353 μm and 37.223 μm and 34.583 μm.

And the “Thickness of IPL (μm), Distance from Optic Disk 600 μm, Mean” value (compound 9 (pre), 1 mg/mL eye drop, right eye, 600 μm from optic disk, mean per animal, listed as compond 9)?
Its value is 36.455 μm and 38.717 μm and 43.674 μm and 35.955 μm and 34.827 μm and 38.882 μm and 43.293 μm and 35.599 μm and 45.392 μm and 35.755 μm.

What about the “Thickness of INL (μm), Distance from Optic Disk 900 μm” value (compound 9 (pre), 1 mg/mL eye drop, right eye, 900 μm from optic disk, individual measurements per animal) of the same molecule?
The value was 34.804 μm and 34.579 μm and 36.245 μm and 30.909 μm and 31.452 μm and 30.862 μm and 27.037 μm and 29.926 μm (2×) and 22.638 μm and 25.416 μm and 27.482 μm and 24.116 μm and 23.512 μm and 24.261 μm and 34.939 μm and 35.346 μm and 31.197 μm and 28.785 μm and 32.162 μm and 30.368 μm and 28.858 μm and 27.378 μm and 29.877 μm and 36.469 μm and 34.623 μm and 36.346 μm and 31.402 μm and 31.035 μm and 29.653 μm.

What about the “Thickness of IPL (μm), Distance from Optic Disk 900 μm” value (compound 9 (pre), 1 mg/mL eye drop, right eye, 900 μm from optic disk, individual measurements per animal, listed as compond 9) of the same molecule?
Its value is 36.789 μm and 36.607 μm and 39.836 μm and 44.120 μm and 43.136 μm and 43.354 μm and 44.421 μm and 42.075 μm and 41.663 μm and 37.132 μm and 35.896 μm and 35.907 μm and 36.540 μm and 39.019 μm and 40.323 μm and 10.804 μm and 39.318 μm and 42.252 μm and 44.289 μm and 46.476 μm and 47.334 μm and 41.468 μm and 39.312 μm and 40.445 μm and 49.477 μm and 48.242 μm and 50.923 μm and 38.230 μm and 37.912 μm and 42.098 μm.

And the “Thickness of INL (μm), Distance from Optic Disk 900 μm, Mean” value (compound 9 (pre), 1 mg/mL eye drop, right eye, 900 μm from optic disk, mean per animal)?
Its value is 35.209 μm and 31.074 μm and 28.963 μm and 25.179 μm and 23.963 μm and 33.827 μm and 30.438 μm and 28.704 μm and 35.813 μm and 30.697 μm.

And the “Thickness of IPL (μm), Distance from Optic Disk 900 μm, Mean” value (compound 9 (pre), 1 mg/mL eye drop, right eye, 900 μm from optic disk, mean per animal, listed as compond 9)?
The value was 37.744 μm and 43.537 μm and 42.720 μm and 36.312 μm and 38.627 μm and 40.791 μm and 46.033 μm and 40.408 μm and 49.547 μm and 39.413 μm.

And the “Thickness of ONL, distance from optic disk 300 μm (single measurement)” value [1]?
Its value is 29.809 μm and 32.509 μm and 28.214 μm and 43.038 μm and 41.873 μm and 42.494 μm and 36.113 μm and 33.931 μm and 32.522 μm and 36.780 μm and 37.800 μm and 37.520 μm and 42.742 μm and 39.019 μm and 43.913 μm and 40.612 μm and 41.912 μm and 42.252 μm and 45.276 μm and 46.187 μm (2×) and 47.148 μm and 61.386 μm and 56.945 μm and 55.989 μm and 51.520 μm and 53.774 μm and 52.512 μm and 40.451 μm and 43.373 μm.

What about the “Thickness of ONL, distance from optic disk 600 μm (single measurement)” value [1] of the same molecule?
The value was 30.220 μm and 32.139 μm and 47.765 μm and 48.521 μm (2×) and 35.360 μm and 35.504 μm and 40.331 μm and 37.009 μm and 49.431 μm and 49.964 μm and 42.863 μm and 40.883 μm and 44.362 μm and 46.081 μm and 44.179 μm and 42.769 μm and 44.033 μm and 41.550 μm and 42.129 μm and 31.379 μm and 50.234 μm and 36.932 μm and 39.277 μm and 47.914 μm and 40.524 μm and 43.548 μm and 48.975 μm and 41.515 μm and 45.970 μm.

And the “Thickness of ONL, distance from optic disk 900 μm (single measurement)” value [1]?
The value was 26.908 μm and 28.742 μm and 28.226 μm and 52.295 μm and 46.680 μm and 52.512 μm and 29.438 μm and 34.522 μm and 34.086 μm and 36.727 μm and 35.966 μm and 41.192 μm and 41.663 μm and 39.411 μm and 42.337 μm and 37.593 μm and 40.812 μm and 38.516 μm and 42.098 μm and 44.443 μm and 46.165 μm and 42.932 μm and 37.619 μm and 42.252 μm and 39.713 μm and 39.071 μm and 42.321 μm and 37.664 μm and 38.550 μm and 42.169 μm.

What about the “Inner plexiform layer (IPL) thickness compared with the control group, in words” value (test group 2 (preventive: eye drop on the 2 days before model creation)) of the same molecule?
The value was “statistically significant differences were observed at all measurement sites; also recorded: statistically significant effect of suppressing retinal damage by aqueous humor pressure load was observed at all measurement sites”.

And the “Inner plexiform layer (IPL) thickness compared with the control group, in words” value (test group 3 (therapeutic: eye drop for 13 days from the day after model creation))?
The value was “statistically significant differences were observed at all measurement sites; also recorded: statistically significant effect of suppressing retinal damage by aqueous humor pressure load was observed at all measurement sites; also recorded: almost equivalent to that of the MK-801”.

And the “Inner nuclear layer (INL) thickness compared with the control group, in words” value [2]?
Its value is “no obvious change was observed”.

What about the “Outer nuclear layer (ONL) thickness compared with the control group, in words” value [2] of the same molecule?
Its value is “no obvious change was observed”.
